Reference: the NIST ThermoML archive (doi:10.1021/je025657+)
“And” between values parts separate entries of the source, which are not always exact repeats. Identical values can stand only once. ± gives the expanded uncertainty stated by the source.

Conditions: for vapor or sublimation pressure: Closed cell (Static) method

COC(F)(F)F [trifluoromethoxymethane]
Gas, Burnett expansion method
Conditions	mass density [kg/m3]
320 K, 421.5 kPa	17.3 ± 0.11
320 K, 570.4 kPa	24.28 ± 0.11
320 K, 604.9 kPa	25.98 ± 0.11
320 K, 802.9 kPa	36.45 ± 0.11
320 K, 847.1 kPa	38.98 ± 0.11
330 K, 137.5 kPa	5.133 ± 0.1
330 K, 188.9 kPa	7.099 ± 0.1
330 K, 203.7 kPa	7.696 ± 0.1
330 K, 280.6 kPa	10.75 ± 0.11
330 K, 300.2 kPa	11.55 ± 0.11
330 K, 410.7 kPa	16.13 ± 0.11
330 K, 437.5 kPa	17.29 ± 0.11
330 K, 594.3 kPa	24.27 ± 0.11
330 K, 630.6 kPa	25.96 ± 0.11
330 K, 841.9 kPa	36.48 ± 0.11
330 K, 889 kPa	38.98 ± 0.11
340 K, 141.7 kPa	5.126 ± 0.1
340 K, 195.8 kPa	7.136 ± 0.1
340 K, 210.4 kPa	7.694 ± 0.1
340 K, 310.5 kPa	11.54 ± 0.1
340 K, 425.6 kPa	16.13 ± 0.11
340 K, 453.5 kPa	17.28 ± 0.11
340 K, 655.6 kPa	25.94 ± 0.11
340 K, 879.5 kPa	36.45 ± 0.11
340 K, 929.4 kPa	38.95 ± 0.11
340 K, 1216.9 kPa	54.78 ± 0.11
340 K, 1278.5 kPa	58.56 ± 0.11
340 K, 1605.8 kPa	82.06 ± 0.12
350 K, 146.2 kPa	5.127 ± 0.1
350 K, 202.9 kPa	7.174 ± 0.1
350 K, 217 kPa	7.688 ± 0.1
350 K, 299.5 kPa	10.74 ± 0.1
350 K, 320.6 kPa	11.53 ± 0.1
350 K, 469.2 kPa	17.27 ± 0.11
350 K, 640.8 kPa	24.25 ± 0.11
350 K, 680.3 kPa	25.92 ± 0.11
350 K, 969 kPa	38.92 ± 0.11
350 K, 1277.1 kPa	54.75 ± 0.11
350 K, 1343.5 kPa	58.5 ± 0.11
350 K, 1709.6 kPa	82.31 ± 0.12
350 K, 1782.8 kPa	87.93 ± 0.12

Conditions	mass density [kg/m3]
320 K, 449.1 kPa, Gas	18.62 ± 0.31
320 K, 634.7 kPa, Gas	27.54 ± 0.34
320 K, 968.5 kPa, Gas	46.37 ± 0.41
320 K, 1046.3 kPa, Liquid	1013.52 ± 0.36
320 K, 1081.4 kPa, Liquid	1013.85 ± 0.36
320 K, 1117.7 kPa, Liquid	1014.21 ± 0.37
320 K, 1512.4 kPa, Liquid	1017.85 ± 0.38
320 K, 1515.2 kPa, Liquid	1018.55 ± 0.38
320 K, 2029.1 kPa, Liquid	1023.1 ± 0.4
320 K, 2036.4 kPa, Liquid	1022.49 ± 0.39
320 K, 2520.5 kPa, Liquid	1026.61 ± 0.41
320 K, 2529.1 kPa, Liquid	1027.35 ± 0.41
320 K, 3012.2 kPa, Liquid	1031.29 ± 0.43
320 K, 3050.4 kPa, Liquid	1030.92 ± 0.42
320 K, 3512.7 kPa, Liquid	1035.21 ± 0.44
320 K, 3595.2 kPa, Liquid	1035.17 ± 0.44
320 K, 4030.7 kPa, Liquid	1039.11 ± 0.46
320 K, 4131.4 kPa, Liquid	1039.19 ± 0.46
320 K, 4518.5 kPa, Liquid	1042.67 ± 0.47
320 K, 4616.1 kPa, Liquid	1042.69 ± 0.47
320 K, 5039.6 kPa, Liquid	1046.35 ± 0.49
320 K, 5136.9 kPa, Liquid	1046.33 ± 0.49
320 K, 5518 kPa, Liquid	1049.62 ± 0.51
320 K, 5652.1 kPa, Liquid	1049.82 ± 0.51
320 K, 6055.9 kPa, Liquid	1053.18 ± 0.53
320 K, 6201.4 kPa, Liquid	1053.41 ± 0.54
320 K, 6522.4 kPa, Liquid	1056.19 ± 0.55
320 K, 6721.8 kPa, Liquid	1056.72 ± 0.56
320 K, 6877.8 kPa, Liquid	1058.42 ± 0.57
320 K, 7175.8 kPa, Liquid	1059.52 ± 0.58
330 K, 72.1 kPa, Gas	2.7 ± 0.26
330 K, 106.1 kPa, Gas	3.97 ± 0.26
330 K, 155.7 kPa, Gas	5.88 ± 0.27
330 K, 227.6 kPa, Gas	8.7 ± 0.28
330 K, 330.5 kPa, Gas	12.87 ± 0.29
330 K, 475.1 kPa, Gas	19.02 ± 0.31
330 K, 674.2 kPa, Gas	28.13 ± 0.34
330 K, 936.5 kPa, Gas	41.69 ± 0.39
330 K, 1364.9 kPa, Liquid	972.53 ± 0.39
330 K, 1414.6 kPa, Liquid	973.15 ± 0.39
330 K, 1458.1 kPa, Liquid	973.66 ± 0.39
330 K, 2087 kPa, Liquid	981.1 ± 0.38
330 K, 2555.2 kPa, Liquid	986.24 ± 0.36
330 K, 3114.9 kPa, Liquid	992.08 ± 0.35
330 K, 3553.8 kPa, Liquid	996.38 ± 0.34
330 K, 4105.6 kPa, Liquid	1001.58 ± 0.34
330 K, 4643.4 kPa, Liquid	1006.39 ± 0.35
330 K, 5117 kPa, Liquid	1010.47 ± 0.36
330 K, 5639.1 kPa, Liquid	1014.76 ± 0.38
330 K, 6168.6 kPa, Liquid	1018.96 ± 0.4
330 K, 6739.6 kPa, Liquid	1023.31 ± 0.42
330 K, 7155.4 kPa, Liquid	1026.38 ± 0.43
340 K, 1691.6 kPa, Liquid	925.88 ± 0.52
340 K, 1704.5 kPa, Liquid	926.14 ± 0.52
340 K, 1776.3 kPa, Liquid	927.36 ± 0.52
340 K, 2059.3 kPa, Liquid	932.03 ± 0.51
340 K, 2582.2 kPa, Liquid	940.1 ± 0.5
340 K, 3081.7 kPa, Liquid	947.17 ± 0.48
340 K, 3596.1 kPa, Liquid	953.91 ± 0.47
340 K, 4130.8 kPa, Liquid	960.48 ± 0.45
340 K, 4614 kPa, Liquid	966.04 ± 0.43
340 K, 5146.7 kPa, Liquid	971.84 ± 0.42
340 K, 5642.7 kPa, Liquid	976.95 ± 0.4
340 K, 6163.1 kPa, Liquid	982.05 ± 0.39
340 K, 6711.6 kPa, Liquid	987.19 ± 0.37
340 K, 7112.6 kPa, Liquid	990.78 ± 0.36
350 K, 2091.1 kPa, Liquid	872.23 ± 0.73
350 K, 2104.3 kPa, Liquid	872.59 ± 0.73

Liquid
Conditions	mass density	vapor or sublimation pressure
320 K	1013.47 ± 1.2 kg/m3 and 1014.09 ± 1.2 kg/m3	1038.1 ± 1.7 kPa and 1038.5 ± 1.7 kPa and 1038.4 ± 1.7 kPa
325 K	–	1175.7 ± 1.9 kPa
330 K	972.09 ± 1.4 kg/m3 and 973.36 ± 1.3 kg/m3 and 973.37 ± 1.3 kg/m3	1325.7 ± 2.1 kPa and 1325.6 ± 2.1 kPa
335 K	–	1489.7 ± 2.3 kPa
340 K	925.57 ± 1.9 kg/m3	1668.8 ± 2.6 kPa and 1668.5 ± 2.6 kPa and 1670.2 ± 2.6 kPa
345 K	–	1863.6 ± 2.9 kPa
